According to patent US8735406B2, “8-oxodihydropurine derivative” (Dainippon Sumitomo Pharma Co., Ltd., priority 2009, dated 2014):

Target: T1, FAAH (Rattus norvegicus, UniProt P97612)
T1 construct: Preparation of Rat Brain Membranes Preparations (FAAH Enzyme Solution); from tissue; host or cells: rat cerebrum (brain membrane preparation)
T1 sequence (P97612 1-579): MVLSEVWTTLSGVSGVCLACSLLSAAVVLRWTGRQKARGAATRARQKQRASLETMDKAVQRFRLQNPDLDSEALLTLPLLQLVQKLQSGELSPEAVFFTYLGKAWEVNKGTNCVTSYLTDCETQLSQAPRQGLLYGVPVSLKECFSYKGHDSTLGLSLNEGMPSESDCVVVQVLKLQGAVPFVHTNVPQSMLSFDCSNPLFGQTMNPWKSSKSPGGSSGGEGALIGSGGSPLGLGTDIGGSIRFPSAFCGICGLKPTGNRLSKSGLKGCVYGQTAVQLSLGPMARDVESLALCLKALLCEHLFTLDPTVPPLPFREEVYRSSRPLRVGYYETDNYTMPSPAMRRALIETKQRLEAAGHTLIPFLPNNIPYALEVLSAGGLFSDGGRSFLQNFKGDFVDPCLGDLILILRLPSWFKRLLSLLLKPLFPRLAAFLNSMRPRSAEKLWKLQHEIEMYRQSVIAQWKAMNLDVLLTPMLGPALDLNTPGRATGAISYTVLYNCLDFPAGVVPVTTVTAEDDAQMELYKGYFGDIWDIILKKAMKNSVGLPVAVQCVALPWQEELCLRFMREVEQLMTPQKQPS
Assay: Determination of FAAH inhibitory activity in rat (rat brain membrane preparations, [3H]-anandamide hydrolysis)
Assay type: biochemical
Conditions: rat brain membrane preparations; for inhibition at 0.1 µM: read-out: FAAH Inhibition, Inhibition Rate at 100 nM; for IC50: test substance 0.1 nM to 1 μM, read-out: FAAH Inhibition IC50
Method in brief: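 Compounds tested from 0.1 nM to 1 μM to derive IC50 against FAAH hydrolysis in rat brain membrane preparations (100 μg/mL). A 10-min 37 °C preincubation was followed by 10 min with [3H]-anandamide (2 nM) mixed with 2 μM unlabelled anandamide. Radioactive ethanolamine was extracted into the water/methanol layer and counted.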

inhibition at 0.1 µM (100 nM test substance) [%] | IC50 [µM] | FAAH Inhibition, Inhibition Rate at 100 nM (100 nM test substance, 0.1 µM) [%] | Structure (SMILES)
104 | 0.01 |  | CCCc1ccc(CCc2ncc3c(n2)n(C(=O)N(C)C)c(=O)n3C)cc1 [compound 500]
103 | 0.01 |  | CCCOc1ccc(CCc2ncc3c(n2)n(C(=O)N(C)C)c(=O)n3C)cc1 [compound 501]
104 | 0.01 |  | CC(C)c1ccc(CCc2ncc3c(n2)n(C(=O)N(C)C)c(=O)n3C)cc1 [compound 502]
101 | 0.01 |  | CCc1ccc(CCc2ncc3c(n2)n(C(=O)N(C)C)c(=O)n3C)cc1 [compound 503]
100 | 0.006 |  | CN(C)C(=O)n1c(=O)n(C)c2cnc(CCc3cc(F)c(F)c(F)c3)nc21 [compound 504]
95 | 0.024 |  | Cc1ccc(C)c(CCc2ncc3c(n2)n(C(=O)N(C)C)c(=O)n3C)c1 [compound 507]
100 | 0.005 |  | CCCCc1ccc(CCc2ncc3c(n2)n(C(=O)N(C)C)c(=O)n3C)cc1 [compound 508]
99 | 0.01 |  | Cc1cc(CCc2ncc3c(n2)n(C(=O)N(C)C)c(=O)n3C)ccc1F [compound 509]
102 | 0.011 |  | Cc1ccc(CCc2ncc3c(n2)n(C(=O)N(C)C)c(=O)n3C)cc1C [compound 510]
95 | 0.013 |  | Cc1cc(C)c(CCc2ncc3c(n2)n(C(=O)N(C)C)c(=O)n3C)c(C)c1 [compound 511]
102 | 0.01 |  | Cc1cc(C)cc(CCc2ncc3c(n2)n(C(=O)N(C)C)c(=O)n3C)c1 [compound 514]
100 | 0.01 |  | CCc1ccccc1CCc1ncc2c(n1)n(C(=O)N(C)C)c(=O)n2C [compound 515]
100 | 0.01 |  | CCc1cccc(CCc2ncc3c(n2)n(C(=O)N(C)C)c(=O)n3C)c1 [compound 516]
98 | 0.01 |  | CN(C)C(=O)n1c(=O)n(C)c2cnc(CCc3cccc(C4CC4)c3)nc21 [compound 517]
107 | 0.009 |  | CCCc1cccc(CCc2ncc3c(n2)n(C(=O)N(C)C)c(=O)n3C)c1 [compound 518]
84 | 0.006 |  | CN(C)C(=O)n1c(=O)n(C)c2cnc(CCc3cccc(OCC4CC4)c3)nc21 [compound 519]
96 | 0.004 |  | CN(C)C(=O)n1c(=O)n(C)c2cnc(CCc3cccc(Cl)c3)nc21 [compound 520]
85 | 0.013 |  | CN(C)C(=O)n1c(=O)n(C)c2cnc(CCc3ccc(C4CC4)cc3)nc21 [compound 521]
80 | 0.094 |  | CN(C)C(=O)n1c(=O)n(C)c2cnc(CCc3ccc(C4CC4)c(F)c3)nc21 [compound 524]
95 | 0.028 |  | CN(C)C(=O)n1c(=O)n(C)c2cnc(CCc3ccc(F)c(C4CC4)c3)nc21 [compound 527]
 | 0.055 | 72 | CN(C)C(=O)n1c(=O)n(C)c2cnc(CCc3cc(F)cc(F)c3)nc21 [compound 528]
80 | 0.03 |  | CN(C)C(=O)n1c(=O)n(C)c2cnc(CCc3ccc(OC4CCC4)cc3)nc21 [compound 531]
96 | 0.013 |  | CN(C)C(=O)n1c(=O)n(C)c2cnc(CCc3ccc(OC4CCCC4)cc3)nc21 [compound 532]
47 | 0.131 |  | CCOc1cccc(CCc2ncc3c(n2)n(C(=O)N(C)C)c(=O)n3C)c1 [compound 534]
61 | 0.075 |  | CCCOc1cccc(CCc2ncc3c(n2)n(C(=O)N(C)C)c(=O)n3C)c1 [compound 535]

inhibition at 0.1 µM (100 nM test substance) [%] | IC50 [µM] | FAAH Inhibition, Inhibition Rate at 100 nM (100 nM test substance, 0.1 µM) [%] | Structure (SMILES)
41 | 0.131 |  | CC(C)Oc1cccc(CCc2ncc3c(n2)n(C(=O)N(C)C)c(=O)n3C)c1 [compound 536]
41 | 0.153 |  | CN(C)C(=O)n1c(=O)n(C)c2cnc(CCc3cccc(C(F)F)c3)nc21 [compound 537]
92 | 0.017 |  | CN(C)C(=O)n1c(=O)n(C)c2cnc(CCc3cccc(C(F)(F)F)c3)nc21 [compound 539]
100 | 0.01 |  | CN(C)C(=O)n1c(=O)n(C)c2cnc(CCc3ccccc3C(F)(F)F)nc21 [compound 542]
70 | 0.067 |  | COc1cccc(CCc2ncc3c(n2)n(C(=O)N(C)C)c(=O)n3C)c1 [compound 543]
122 | 0.011 |  | COc1ccc(CCc2ncc3c(n2)n(C(=O)N(C)C)c(=O)n3C)cc1 [compound 544]
86 | 0.028 |  | CN(C)C(=O)n1c(=O)n(C)c2cnc(CCc3ccccc3C(F)F)nc21 [compound 546]
79 | 0.027 |  | CN(C)C(=O)n1c(=O)n(C)c2cnc(CCc3cccc(OC(F)F)c3)nc21 [compound 548]
77 | 0.022 |  | CN(C)C(=O)n1c(=O)n(C)c2cnc(CCc3ccccc3OC(F)(F)F)nc21 [compound 549]
87 | 0.02 |  | CN(C)C(=O)n1c(=O)n(C)c2cnc(CCc3cccc(F)c3F)nc21 [compound 550]
40 | 0.104 |  | CN(C)C(=O)n1c(=O)n(C)c2cnc(CCc3c(F)cccc3F)nc21 [compound 551]
43 |  |  | CCN(C)C(=O)n1c(=O)n(C)c2cnc(CCc3ccccc3F)nc21 [compound 554]
48 | 0.106 |  | CCN(C)C(=O)n1c(=O)n(C)c2cnc(CCc3ccc(F)cc3)nc21 [compound 555]
78 | 0.044 |  | CCN(C)C(=O)n1c(=O)n(C)c2cnc(CCc3cccc(C)c3)nc21 [compound 556]
66 | 0.067 |  | CCN(C)C(=O)n1c(=O)n(C)c2cnc(CCc3cccc(OC)c3)nc21 [compound 557]
83 | 0.023 |  | CCN(C)C(=O)n1c(=O)n(C)c2cnc(CCc3cccc(OC(F)(F)F)c3)nc21 [compound 558]
97 | 0.01 |  | Cc1ccc(CCc2ncc3c(n2)n(C(=O)N2CCC2)c(=O)n3C)cc1 [compound 559]
91 | 0.014 |  | Cc1cccc(CCc2ncc3c(n2)n(C(=O)N2CCC2)c(=O)n3C)c1 [compound 560]
99 | 0.01 |  | CCc1ccc(CCc2ncc3c(n2)n(C(=O)N2CCC2)c(=O)n3C)cc1 [compound 561]
101 | 0.01 |  | CCCc1ccc(CCc2ncc3c(n2)n(C(=O)N2CCC2)c(=O)n3C)cc1 [compound 562]
100 | 0.007 |  | CC(C)c1ccc(CCc2ncc3c(n2)n(C(=O)N2CCC2)c(=O)n3C)cc1 [compound 563]
98 | 0.009 |  | CCCOc1ccc(CCc2ncc3c(n2)n(C(=O)N2CCC2)c(=O)n3C)cc1 [compound 564]
99 | 0.01 |  | Cc1ccc(CCc2ncc3c(n2)n(C(=O)N2CCC2)c(=O)n3C)cc1C [compound 565]
96 | 0.01 |  | Cc1cc(C)c(CCc2ncc3c(n2)n(C(=O)N2CCC2)c(=O)n3C)c(C)c1 [compound 566]
